Literature values, collected in patent US11141417B2 (priority 2013, dated 2021).
“Also recorded” adds a separate entry of the source.

Settings: classification in words

## C[C@@H](c1ncncc1F)[C@](O)(Cn1cncn1)c1ccc(F)cc1F [Voriconazole, (2R,3S)-2-(2,4-difluorophenyl)-3-(5-fluoro-4-pyrimidinyl)-1-(1H-1,2,4triazol-1-yl)-2-butanol]
  solubility in water: only sparingly soluble in water; also recorded: very slightly soluble in water
